“Also recorded” adds a separate entry of the source. Values belong to the molecule of their own block, whether it stands above or below them.
Legend:
[1] = Sorption of bisphosphonates on hydroxyapatite in SBF; type: physicochemical; conditions: 0.7 mM, 30 mg HA; for affinity for HA (sorption), comparison in words: 10 mL SBF, 1, 2 and 48 h
Method: The first step was to investigate the effect of concentration on the RSD sorption on HA. The sorption capacity was examined for 4 concentrations (0.2, 0.5, 0.7 and 1 mM). 30 mg (+ /− 0.1 mg) of HA was weighed into polypropylene tubes. Subsequently, 10 mL of Simulated Body Fluid (SBF) (Table 2) containing BPs was poured into the tubes and placed in a shaker for 1 h, 2 h, and 48 h. Sorption of BP compounds on HA was measured using a UV–VIS spectrophotometer after 5 min of centrifugation (speed 4000 rpm). The compound concentrations were measured by Multiskan152 Sky Microplate Spectrophotometer (Thermo Fisher Scientific, Waltham, MA, USA). Next, for one concentration (0.7 mM), sorption studies of all BPs were conducted in the same manner as indicated above for RSD. The measurements were conducted in the range of 220–400 nm. The quantitative assessment was performed based on the calibration curve method at the absorbance maximum for each BP (absorption properties of the tested compounds are summarized in Table 3).

[2] = test system: Lactobacillus paracasei PCM 3039; test: Bacterial cell membrane permeability (Crystal Violet uptake); type: cell-based; conditions: 0.2 mg mL^−1 BP, 24 h; for Crystal Violet uptake (cell membrane permeability): Ctrl 33.4 ± 8.0%
Method: (§1) Lactobacillus paracasei PCM 3039 used in the experiments was purchased from the Polish Collection of Microorganisms (Wroclaw, Poland). The liquid cultures were composed of the minimal medium (10% solution of MRS Broth in Dulbecco’s Phosphate Buffered Saline (DPBS)), the inoculum, and a BP stock solution in water (initial concentration of BPs in each culture was 0.2 mg mL^−1). The bacterial inoculum was prepared from the broth cultures incubated overnight at 37 °C and washed twice with a sterile medium. The initial cell concentration in each culture was adjusted to 1–10^8 cfu mL^−1. The reference cultures without the addition of BPs (denoted as Ctrl) and the abiotic control samples with the addition of pure minimal medium instead of bacterial inoculum were carried out. All samples were incubated at 36 °C for 24 h with shaking (150 rpm). The effect of BPs on the properties of bacterial cells was also evaluated. The experiments performed include (i) modifications of the bacterial cell membrane permeability—the measurements were based on the Crystal Violet uptake by the cells, (ii) modifications of the bacterial cell wall hydrophobicity, based on the procedure described previously. Relative metabolic activity of cells treated with the compounds in question measured with the colorimetric test AlamarBlue® Cell Viability Assay.

[3] = test system: Lactobacillus paracasei PCM 3039; test: Relative metabolic activity (AlamarBlue Cell Viability Assay); type: cell-based; conditions: 0.2 mg mL^−1 BP, relative to control group set at 100%
Method: as §1

[4] = set-up: method as in PMID 34277124; conditions: cited from earlier work
[5] = Parallel artificial membrane permeability assay (PAMPA); type: in vitro ADME; conditions: 175 μM in PBS pH 7.4, 5 h; for PAMPA permeability, comparison in words: room temperature
Method: A parallel artificial membrane permeability assay (PAMPA) (Corning® Gentest™ Pre-coated PAMPA Plate System Gentest, USA) was prepared according to the recommended protocol. 96-well PAMPA plate was heated to room temperature for at least 30 min. Compound solutions were prepared in buffer (175 μM in PBS, pH 7.4). 300 μL of the BP solution was added to each donor plate well, and 200 μL of buffer (PBS, pH 7.4) was added to each acceptor plate. The filter plate (acceptor plate) was then placed on the receiver plate (donor plane) and the plate assembly was incubated at room temperature for 5 h. The compound amounts were measured by Multiskan152 SkyMicroplate Spectrophotometer (Thermo Fisher Scientific, Waltham, USA). The permeability of the BPs was calculated using the following formula (Eq. 1)1 Pe=-In[1-CA(t)/Cequilibrium]/A∗(1/VD+1/VA)∗t where Pe is the permeability (cm s^−1), Cequilibrium is [CD(t) × VD + CA(t) × VA]/(VD + VA), CD(t) indicates the compound concentration in donor well at time t (mM), CA(t) indicates the compound concentration in acceptor well at time t (mM), VD is the donor well volume (0.3 mL), VA is the acceptor well volume (0.2 mL), t is the incubation time (18000 s), and A is the effective filter area (0.3 cm^2).

[6] = test system: Lactobacillus paracasei PCM 3039; test: Bacterial cell wall hydrophobicity (Congo Red binding); type: cell-based; conditions: 0.2 mg mL^−1 BP, 24 h; Ctrl 39.7 ± 8.0%
Method: as §1

[7] = test system: Lactobacillus paracasei PCM 3039; test: Growth curve of L. paracasei (OD600); type: cell-based; conditions: 0.2 mg mL^−1 BP, 24 h
Method: Lactobacillus paracasei PCM 3039 used in the experiments was purchased from the Polish Collection of Microorganisms (Wroclaw, Poland). The liquid cultures were composed of the minimal medium (10% solution of MRS Broth in Dulbecco’s Phosphate Buffered Saline (DPBS)), the inoculum, and a BP stock solution in water (initial concentration of BPs in each culture was 0.2 mg mL^−1). The bacterial inoculum was prepared from the broth cultures incubated overnight at 37 °C and washed twice with a sterile medium. The initial cell concentration in each culture was adjusted to 1–10^8 cfu mL^−1. The reference cultures without the addition of BPs (denoted as Ctrl) and the abiotic control samples with the addition of pure minimal medium instead of bacterial inoculum were carried out. All samples were incubated at 36 °C for 24 h with shaking (150 rpm). The growth of cells treated with BPs as well as control cells was monitored by measuring the optical density at the wavelength of 600 nm (OD600) as described by. The growth curve measurements were performed with a microplate reader Multiskan 152 Sky (Thermo Fisher Scientific, Waltham, MA, USA). 200 μL of the prepared bacterial cultures were transferred to the 96-well clear bottom sterile microplates wells. The plates were maintained at 37 °C with pulse shaking. The OD600 of each well was read every 10 min for 24 h.

[8] = set-up: method as in PMID 32387834; conditions: oral; cited from earlier work
[9] = set-up: method as in PMID 18056045; conditions: cited from earlier work
[10] = set-up: method as in PMID 26542347; conditions: in vitro artificial intestinal membrane; cited from earlier work
Caco-2 cell monolayer = test system: Caco-2 cell monolayer; set-up: method as in PMID 26542347; conditions: cited from earlier work

SMILES: Cc1cccnc1NC(P(=O)(O)O)P(=O)(O)O [BP2, (3-methyl-2-pyridinyl)aminomethylene-1,1-bisphosphonic acid]
- affinity for HA (sorption), comparison in words [1]: lower affinity
- drug concentration in the acceptor plate relative to RSD [5]: over twice as high as RSD
- PAMPA permeability, comparison in words [5]: higher permeability than the other two compounds
- AlamarBlue Reduction (relative metabolic activity) [3]: approximately 154.0%
- sorption and desorption on polymer-ceramic materials [4]: high sorption levels on polymer-ceramic materials, followed by extensive desorption

SMILES: Cc1ccnc(NC(P(=O)(O)O)P(=O)(O)O)c1 [BP3, (4-methyl-2-pyridinyl)aminomethylene-1,1-bisphosphonic acid]
- change in membrane permeability in comparison with RSD [2]: significant decrease

SMILES: Cc1ccc(NC(P(=O)(O)O)P(=O)(O)O)nc1 [BP4, (5-methyl-2-pyridinyl)aminomethylene-1,1-bisphosphonic acid]
- drug concentration in the acceptor plate relative to RSD [5]: over twice as high as RSD
- PAMPA permeability, comparison in words [5]: higher permeability than the other two compounds
- Crystal Violet uptake (cell membrane permeability) [2]: 62.7 ± 8.4%
- Congo Red Binding (cell wall hydrophobicity) [6]: 89.3 ± 3.5%
- AlamarBlue Reduction (relative metabolic activity) [3]: approximately 154.0%

SMILES: Cc1cc(C)nc(NC(P(=O)(O)O)P(=O)(O)O)c1 [BP5, (4,6-dimethyl-2-pyridinyl)amino-methylene-1,1-bisphosphonic acid]
- affinity for HA (sorption), comparison in words [1]: lower affinity
- change in membrane permeability in comparison with RSD [2]: significant decrease

SMILES: O=P(O)(O)C(Nc1nc2ccccc2s1)P(=O)(O)O [BP12, N-(1,3-benzothiazol-2-yl)amino-methylene-1,1-bisphosphonic acid]
- affinity for HA (sorption), comparison in words [1]: lower affinity for HA compared to RSD and BP1
- sorption and desorption on polymer-ceramic materials [4]: high sorption levels on polymer-ceramic materials, followed by extensive desorption

SMILES: O=P(O)(O)C(O)(Cc1cccnc1)P(=O)(O)O [RSD, Risedronate]
- sorption on HA ([1]; 10 mL SBF): approximately 50%
- growth of L. paracasei (OD600 growth curve), in words [7]: initial fast cell growth was followed by a rapid decrease in cell density
- bioavailability [8]: 0.62%
- urinary excretion 24 h after the first dose [9]: 65%

SMILES: O=P(O)(O)C(O)(Cn1ccnc1)P(=O)(O)O [Zoledronate, zoledronic acid]
- permeability Pe [10]: Not detected
- apparent permeability coefficient Papp (Caco-2 cell monolayer): 2.72 ± 0.868 (× 10^−6) cm s^−1
- urinary excretion 24 h after the first dose [9]: 38%

SMILES: O=P(O)(O)C(Cl)(Cl)P(=O)(O)O [clodronate]
- urinary excretion 24 h after the first dose [9]: 73%

More lines, main results first:

- affinity for HA (sorption), comparison in words [1]: slightly higher affinity for HA than RSD
- change in membrane permeability in comparison with RSD [2]: significant decrease
SMILES: O=P(O)(O)C(Nc1ccccn1)P(=O)(O)O [BP1, 2-pyridinylaminomethylene-1,1-bisphosphonic acid]
- AlamarBlue Reduction (relative metabolic activity) [3]: approximately 154.0%
- sorption and desorption on polymer-ceramic materials [4]: high sorption levels on polymer-ceramic materials, followed by extensive desorption

- affinity for HA (sorption), comparison in words [1]: slightly higher affinity for HA than RSD
SMILES: O=P(O)(O)C(Nc1ccc(I)cn1)P(=O)(O)O [BP6, (5-iodo-2-pyridinyl)amino-methylene-1,1-bisphosphonic acid]

- affinity for HA (sorption), comparison in words [1]: slightly higher affinity for HA than RSD
- drug concentration in the acceptor plate relative to RSD [5]: over twice as high as RSD
- change in membrane permeability in comparison with RSD [2]: significant decrease
- Crystal Violet uptake (cell membrane permeability) [2]: 30.6 ± 6.0%
- Congo Red Binding (cell wall hydrophobicity) [6]: 45.0 ± 5.8%
SMILES: O=P(O)(O)C(Nc1ccc(Br)cn1)P(=O)(O)O [BP7, (5-bromo-2-pyridinyl)amino-methylene-1,1-bisphosphonic acid]

- affinity for HA (sorption), comparison in words [1]: stronger affinity for HA than RSD
- drug concentration in the acceptor plate relative to RSD [5]: over twice as high as RSD
- Congo Red Binding (cell wall hydrophobicity) [6]: 82.1 ± 1.7%
SMILES: O=P(O)(O)C(Nc1ccc(Cl)cn1)P(=O)(O)O [BP8, (5-chloro-2-pyridinyl)amino-methylene-1,1-bisphosphonic acid]
- PAMPA permeability, comparison in words [5]: higher than twice as much as BP9 permeability; also recorded: highest permeability among all analyzed BPs

- Crystal Violet uptake (cell membrane permeability) [2]: 61.9 ± 5.7%
- Congo Red Binding (cell wall hydrophobicity) [6]: 85.0 ± 2.4%
SMILES: O=P(O)(O)C(Nc1cccc(Cl)n1)P(=O)(O)O [BP9, (6-chloro-2-pyridinyl)amino-methylene-1,1-bisphosphonic acid]
- AlamarBlue Reduction (relative metabolic activity) [3]: 35.9 ± 16.7%

- Crystal Violet uptake (cell membrane permeability) [2]: 60.6 ± 8.7%
- Congo Red Binding (cell wall hydrophobicity) [6]: 86.4 ± 1.7%
SMILES: O=P(O)(O)C(Nc1cccnc1Cl)P(=O)(O)O [BP10]

- affinity for HA (sorption), comparison in words [1]: highest sorption
- change in membrane permeability in comparison with RSD [2]: significant decrease
- Crystal Violet uptake (cell membrane permeability) [2]: 30.9 ± 6.4%
- Congo Red Binding (cell wall hydrophobicity) [6]: 35.2 ± 6.1%
SMILES: O=P(O)(O)C(Nc1cccc(O)n1)P(=O)(O)O [BP11, (6-hydroksy-2-pyridinyl)amino-methylene-1,1-bisphosphonic acid]
- PAMPA permeability, comparison in words [5]: highest permeability among all analyzed BPs
- AlamarBlue Reduction (relative metabolic activity) [3]: 60.4 ± 3.4%

From article PMC11387443, “Determination of bisphosphonate properties in terms of bioavailability, bone affinity, and cytotoxicity” (Pharmacological Reports, 2024)
